Molecular target: recombinant human GST-SYK (Homo sapiens (Human), UniProt P43405)
Assay: Homogeneous Time-Resolved Fluorescence (HTRF) Assay for the Recombinant Human Syk Enzyme
Format: biochemical
Settings: GST-SYK 5 pM, ATP 25 μM, biotinylated substrate peptide 250 nM, HTRF signal
Experimental: Homogeneous Time-Resolved Fluorescence (HTRF) Assay for the Recombinant Human Syk Enzyme
A recombinant GST-hSYK fusion protein was used to measure potency of compounds to inhibit human Syk activity. The recombinant human GST-SYK (Carna Biosciences #08-176) (5 pM final concentration) was incubated with various concentrations of the inhibitor diluted in DMSO (0.1% final concentration) for 10 minutes at room temperature in 15 mM Tris-HCl (pH 7.5), 0.01% tween 20, 2 mM DTT in 384 well plate format. To initiate the reaction the biotinylated substrate peptide (250 nM final concentration) that contains the phosphorylation site for Syk was added with magnesium (5 mM final concentration) and ATP (25 μM final concentration). Final volume of the reaction was 10 μL. Phosphorylation of the peptide was allowed to proceed for 45′ at room temperature. To quench the reaction and detect the phosphorylated product, 2 nM of a Europium-anti-phosphotyrosine antibody (Perkin Elmer #AD0161) and 70 nM SA-APC (Perkin-Elmer #CR130-100) were added together in 15 mM Tris pH 7.5, 40 mM EDTA, 0.01% tween 20. Final volume of the quenching solution was 10 μL.
The resulting HTRF signal was measured after 30 minutes on an EnVision (Perkin-Elmer) reader using a time-resolved fluorescence protocol. Table A below lists activities as IC50 values (nM) for representative compounds of the invention.

SMILES | IC50 [nM]
CCn1cc(-c2cc(Nc3nccc(C(F)(F)F)n3)cc(-c3cnc([C@]4(O)CC[C@@H](C(=O)O)C(C)(C)C4)s3)c2)cn1 (single isomer, unassigned) [Example 2.4, (1R,4S or 1S,4R)-4-{5-3-(1-ethyl-1H-pyrazol-4-yl)-5-{[4-(trifluoromethyl)pyrimidin-2-yl]amino}phenyl]-1,3-thiazol-2-yl}-4-hydroxy-2,2-dimethylcyclohexanecarboxylic acid] | 63.5
CC1(C)C[C@](O)(c2ncc(-c3cc(Nc4nccc(C(F)(F)F)n4)cc(-c4cccs4)c3)s2)CC[C@H]1C(=O)O (single isomer, unassigned) [Example 3.2, (1R,4S or 1S,4R)-4-hydroxy-2,2-dimethyl-4-[5-(3-thiophen-2-yl-5-{[4-(trifluoromethyl)pyrimidin-2-yl]amino}phenyl)-1,3-thiazol-2-yl]cyclohexanecarboxylic acid] | 12.4
CC(C)n1cc(-c2cc(Nc3nccc(C(F)(F)F)n3)cc(-c3cnc([C@]4(O)CC[C@@H](C(=O)O)C(C)(C)C4)s3)c2)cn1 (single isomer, unassigned) [Example 2.3, (1R,4S or 1S,4R)-4-hydroxy-2,2-dimethyl-4-[5-(3-[1-(1-methylethyl)-1H-pyrazol-4-yl]-5-{[4-(trifluoromethyl)pyrimidin-2-yl]amino}phenyl)-1,3-thiazol-2-yl]cyclohexanecarboxylic acid] | 149
Cc1ccsc1-c1cc(Nc2nccc(C(F)(F)F)n2)cc(-c2cnc([C@]3(O)CC[C@@H](C(=O)O)C(C)(C)C3)s2)c1 (single isomer, unassigned) [Example 2.23, (1R,4S or 1S,4R)-4-hydroxy-2,2-dimethyl-4-{5-[3-(3-methylthiophen-2-yl)-5-{[4-(trifluoromethyl)pyrimidin-2-yl]amino}phenyl]-1,3-thiazol-2-yl}cyclohexanecarboxylic acid] | 10.1
CC1(C)C[C@@](O)(c2ncc(-c3cc(Nc4nccc(C(F)(F)F)n4)cc(-c4nccs4)c3)s2)CC[C@@H]1C(=O)O (single isomer, unassigned) [Example 3.1, (1R,4S or 1S,4R)-4-Hydroxy-2,2-dimethyl-4-(5-(3-(thiazol-2-yl)-5-((4-(trifluoromethyl)pyrimidin-2-yl)amino)phenyl)thiazol-2-yl)cyclohexanecarboxylic acid] | 2.5
CC1(C)C[C@](O)(c2ncc(-c3cc(Nc4nccc(C(F)(F)F)n4)cc(C4=CCCCC4)c3)s2)CC[C@H]1C(=O)O (single isomer, unassigned) [Example 2.21, (1R,4S or 1S,4R)-4-[5-(3-cyclohex-1-en-1-yl-5-{[4-(trifluoromethyl)pyrimidin-2-yl]amino}phenyl)-1,3-thiazol-2-yl]-4-hydroxy-2,2-dimethylcyclohexanecarboxylic acid] | 17.6
CC1(C)C[C@](O)(c2ncc(-c3cc(Nc4nccc(C(F)(F)F)n4)cc(-c4ccc(N)nc4)c3)s2)CC[C@H]1C(=O)O (single isomer, unassigned) [Example 2.19, (1R,4S or 1S,4R)-4-{5-[3-(6-aminopyridin-3-yl)-5-{[4-(trifluoromethyl)pyrimidin-2-yl]amino}phenyl]-1,3-thiazol-2-yl}-4-hydroxy-2,2-dimethylcyclohexanecarboxylic acid] | 1.29
COc1cc(Nc2nccc(C(F)(F)F)n2)cc(-c2cnc([C@]3(O)CC[C@@H](C(=O)O)CC3)s2)c1 [Example 1.6, cis-4-Hydroxy-4-(5-(3-methoxy-5-((4-(trifluoromethyl)pyrimidine-2-yl)amino)phenyl)thiazol-2-yl)cyclohexanecarboxylic acid] | 1.29
N#Cc1cc(Nc2nccc(C(F)(F)F)n2)cc(-c2cnc(C3(O)CCC(C(=O)O)CC3)s2)c1 (stereo not drawn) [Example 1.7, cis 4-[5-(3-cyano-5-{[4-(trifluoromethyl)pyrimidin-2-yl]amino}phenyl)-1,3-thiazol-2-yl]-4-hydroxycyclohexanecarboxylic acid] | 8.48
C[C@@H]1C[C@@](O)(c2ncc(-c3cc(Nc4nccc(C(F)(F)F)n4)cc(-c4cn[nH]c4)c3)s2)CC[C@@H]1C(=O)O (racemic) [Example 1.2, rel-(1S,2R,4R or S)-4-(5-(3-(1H-pyrazol-4-yl)-5-((4-(trifluoromethyl)pyrimidin-2-yl)amino)phenyl)thiazol-2-yl)-4-hydroxy-2-methylcyclohexanecarboxylic acid] | 0.959
C[C@@H]1C[C@@](O)(c2ncc(-c3cc(Nc4nccc(C(F)(F)F)n4)cc(-c4cn[nH]c4)c3)s2)CC[C@@H]1C(N)=O (racemic) [Example 1.3, rel-(1S,2R,4R or S)-4-(5-(3-(1H-pyrazol-4-yl)-5-((4-(trifluoromethyl)pyrimidin-2-yl)amino)phenyl)thiazol-2-yl)-4-hydroxy-2-methylcyclohexanecarboxamide] | 2.95
CC1(C)C[C@](O)(c2ncc(-c3cc(Nc4nccc(C(F)(F)F)n4)cc(-c4cc[nH]n4)c3)s2)CC[C@H]1C(=O)O (single isomer, unassigned) [Example 2.11, (1R,4S or 1S,4R)-4-hydroxy-2,2-dimethyl-4-{5-[3-(1H-pyrazol-3-yl)-5-{[4-(trifluoromethyl)pyrimidin-2-yl]amino}phenyl]-1,3-thiazol-2-yl}cyclohexanecarboxylic acid] | 1.11
COc1ccc(-c2cc(Nc3nccc(C(F)(F)F)n3)cc(-c3cnc([C@]4(O)CC[C@@H](C(=O)O)C(C)(C)C4)s3)c2)cn1 (single isomer, unassigned) [Example 2.7, (1R,4S or 1S,4R)-4-hydroxy-4-{5-[3-(6-methoxypyridin-3-yl)-5-{[4-(trifluoromethyl)pyrimidin-2-yl]amino}phenyl]-1,3-thiazol-2-yl}-2,2-dimethylcyclohexanecarboxylic acid] | 3.68
CC1(C)C[C@](O)(c2ncc(-c3cc(Nc4nccc(C(F)(F)F)n4)cc(-c4ccncc4)c3)s2)CC[C@H]1C(=O)O (single isomer, unassigned) [Example 2.5, (1R,4S or 1S,4R)-4-hydroxy-2,2-dimethyl-4-[5-(3-pyridin-4-yl-5-{[4-(trifluoromethyl)pyrimidin-2-yl]amino}phenyl)-1,3-thiazol-2-yl]cyclohexanecarboxylic acid] | 1.56
CC1(C)C[C@](O)(c2ncc(-c3cc(Nc4nccc(C(F)(F)F)n4)cc(-c4cn[nH]c4)c3)s2)CC[C@H]1C(=O)O (single isomer, unassigned) [Example 2.10, (1R,4S or 1S,4R)-4-hydroxy-2,2-dimethyl-4-{5-[3-(1H-pyrazol-4-yl)-5-{[4-(trifluoromethyl)pyrimidin-2-yl]amino}phenyl]-1,3-thiazol-2-yl}cyclohexanecarboxylic acid] | 2.38
CC1(C)C[C@](O)(c2ncc(-c3cc(/C=C\C4CC4)cc(Nc4nccc(C(F)(F)F)n4)c3)s2)CC[C@H]1C(=O)O (single isomer, unassigned) [Example 2.27, (1R,4S or 1S,4R)-4-[5-(3-[(Z)-2-cyclopropylethenyl]-5-{[4-(trifluoromethyl)pyrimidin-2-yl]amino}phenyl)-1,3-thiazol-2-yl]-4-hydroxy-2,2-dimethylcyclohexanecarboxylic acid] | 4.06
CC1(C)C[C@](O)(c2ncc(-c3cc(Nc4nccc(C(F)(F)F)n4)cc(-c4ccccc4Cl)c3)s2)CC[C@H]1C(=O)O (single isomer, unassigned) [Example 2.18, (1R,4S or 1S,4R)-4-[5-(2′-chloro-5-{[4-(trifluoromethyl)pyrimidin-2-yl]amino}biphenyl-3-yl)-1,3-thiazol-2-yl]-4-hydroxy-2,2-dimethylcyclohexanecarboxylic acid] | 37.1
CC1(C)C[C@](O)(c2ncc(-c3cc(Nc4nccc(C(F)(F)F)n4)cc(-c4cccc(F)c4F)c3)s2)CC[C@H]1C(=O)O (single isomer, unassigned) [Example 2.14, (1R,4S or 1S,4R)-4-[5-(2′,3′-difluoro-5-{[4-(trifluoromethyl)pyrimidin-2-yl]amino}biphenyl-3-yl)-1,3-thiazol-2-yl]-4-hydroxy-2,2-dimethylcyclohexanecarboxylic acid] | 12.9
COc1cc(Nc2nccc(C(F)(F)F)n2)cc(-c2cnc([C@@]3(O)CC[C@H](C(=O)O)C(C)(C)C3)s2)c1 (single isomer, unassigned) [Example 1.5, (1R,4S or 1S,4R) 4-Hydroxy-4-(5-(3-methoxy-5-((4-(trifluoromethyl)pyrimidin-2-yl)amino)phenyl)thiazol-2-yl)-2,2-dimethylcyclohexanecarboxylic acid] | 1.4
Cc1ccccc1-c1cc(Nc2nccc(C(F)(F)F)n2)cc(-c2cnc([C@]3(O)CC[C@@H](C(=O)O)C(C)(C)C3)s2)c1 (single isomer, unassigned) [Example 2.20, (1R,4S or 1S,4R)-4-hydroxy-2,2-dimethyl-4-[5-(2′-methyl-5-{[4-(trifluoromethyl)pyrimidin-2-yl]amino}biphenyl-3-yl)-1,3-thiazol-2-yl]cyclohexanecarboxylic acid] | 70.4

Source: US9499534B2, “Thiazole-substituted aminopyrimidines as spleen tyrosine kinase inhibitors” (priority 2013, dated 2016)
